In US11331369B2, “Endoparasitic depsipeptides” (Zoetis Services LLC, priority 2017, dated 2022):

Columns and labels:
[1] = Canine pharmacokinetic (PK) study, single IV or oral dose; conditions: dog; for Vd / clearance / half-life / Cmax: in vivo; for Vd / clearance / half-life: iv, 0.2 mg/kg; for Cmax: po, 1 mg/kg; for F: oral 1 mg/kg
[2] = system: microfilariae of Dirofilaria immitis; test: Dirofilaria immitis, Microfilaria (DiMF) In vitro Assay; format: cell-based; conditions: 72 h, read-out: DiMF Minimum Effective Dose (MED), approximately 72 hours incubation, microfilariae assessed for survival or paralysis
[3] = system: circulating microfilariae (Dirofilaria immitis); test: Heartworm Positive Dog Studies (effects on circulating microfilariae, clinical observations)
[4] = system: 4th stage larvae (L4) of Dirofilaria immitis; test: Dirofilaria immitis, L4 Stage (DiL4) In Vitro Assay; format: cell-based; conditions: Dirofilaria immitis, 72 h, read-out: DiL4 Minimum Effective Dose (MED), approximately 72 hours incubation; L4 larvae assessed for survival or paralysis
[5] = system: third stage larvae of Haemonchus contortus; test: Haemonchus contortus L3 (HcL3) Assay; format: cell-based; conditions: 96 h, read-out: HcL3 Minimum Effective Dose (MED)

Row | Structure (SMILES) | Vd [1] [L/kg] | clearance [1] [mL/min/kg] | half-life [1] [h] | Cmax [1] [ng/mL] | F [1] [%] | minimal effective concentration [2] [µM] | minimal effective concentration [4] [µM] | minimal effective concentration [5] [µM] | other results
1 | CC(C)C[C@H]1C(=O)O[C@H](Cc2ccc(Cn3nc(C4CC4)cc3C3CC3)cc2)C(=O)N(C)[C@@H](CC(C)C)C(=O)O[C@H](C)C(=O)N(C)[C@@H](CC(C)C)C(=O)O[C@H](Cc2ccc(Cn3nc(C4CC4)cc3C3CC3)cc2)C(=O)N(C)[C@@H](CC(C)C)C(=O)O[C@H](C)C(=O)N1C [Example 1b-14, (3S,6R,9S,12R,15S,18R,21S,24R)-6,18-bis({4-[(3,5-dicyclopropyl-1H-pyrazol-1-yl)methyl]phenyl}methyl)-4,10,12,16,22,24-hexamethyl-3,9,15,21-tetrakis(2-methylpropyl)-1,7,13,19-tetraoxa-4,10,16,22-tetraazacyclotetracosan-2,5,8,11,14,17,20,23-octaone] | 2.7 | 0.9 | 138 | 111 | 10 | 0.3 | – | – | Mean MF/mL, Day 0 Pre-dose ([3]; heartworm positive dogs, blood, 3 dogs/treatment, baseline before oral dose): 15,000 MF/mL; Mean MF/mL, Day 0 Post-dose, 2 hours ([3]; heartworm positive dogs, blood, 3 dogs/treatment, oral dose (emodepside and 1b-14 1 mg/kg, 1b-25 up to 3 mg/kg), 2 hours post-dose): 20,000 MF/mL; Mean MF/mL, Day 1 ([3]; heartworm positive dogs, blood, 3 dogs/treatment, oral dose (emodepside and 1b-14 1 mg/kg, 1b-25 up to 3 mg/kg), Day 1): 14,000 MF/mL; Mean MF/mL, Day 7 ([3]; heartworm positive dogs, blood, 3 dogs/treatment, oral dose (emodepside and 1b-14 1 mg/kg, 1b-25 up to 3 mg/kg), Day 7): 15,000 MF/mL; Mean MF/mL, Day 14 ([3]; heartworm positive dogs, blood, 3 dogs/treatment, oral dose (emodepside and 1b-14 1 mg/kg, 1b-25 up to 3 mg/kg), Day 14): 33,000 MF/mL; Mean MF/mL, Day 21 ([3]; heartworm positive dogs, blood, 3 dogs/treatment, oral dose (emodepside and 1b-14 1 mg/kg, 1b-25 up to 3 mg/kg), Day 21): 28,000 MF/mL; adverse effects / clinical observations ([3]; heartworm positive dogs, 1 mg/kg (po)): no adverse clinical observations noted; average MF counts on day 21 ([3]; heartworm positive dogs, 1 mg/kg (po), 15,000 MF/mL of blood pre-dose): 28,000 MF/mL of blood; effects on circulating MF counts ([3]; heartworm positive dogs, 1 mg/kg (po), throughout the dog study): no significant effects on circulating MF counts; % Reduction of circulating microfilariae, Day 0 Post-dose, 2 hours ([3]; vs pre-dose (Day 0) counts, oral dose, 2 hours post-dose): −33%; % Reduction of circulating microfilariae, Day 1 ([3]; vs pre-dose (Day 0) counts, oral dose, Day 1): 7%; % Reduction of circulating microfilariae, Day 7 ([3]; vs pre-dose (Day 0) counts, oral dose, Day 7): 0%; % Reduction of circulating microfilariae, Day 14 ([3]; vs pre-dose (Day 0) counts, oral dose, Day 14): −120%; % Reduction of circulating microfilariae, Day 21 ([3]; vs pre-dose (Day 0) counts, oral dose, Day 21): −87%
2 | CC(C)C[C@H]1C(=O)O[C@H](Cc2ccc(Cn3nc(C(F)(F)F)cc3C(F)(F)F)cc2)C(=O)N(C)[C@@H](CC(C)C)C(=O)O[C@H](C)C(=O)N(C)[C@@H](CC(C)C)C(=O)O[C@H](Cc2ccc(Cn3nc(C(F)(F)F)cc3C(F)(F)F)cc2)C(=O)N(C)[C@@H](CC(C)C)C(=O)O[C@H](C)C(=O)N1C [Example 1b-15, (3S,6R,9S,12R,15S,18R,21S,24R)-6,18-bis[(4-{[3,5-bis(trifluoromethyl)-1H-pyrazol-1-yl]methyl}phenyl)methyl]-4,10,12,16,22,24-hexamethyl-3,9,15,21-tetrakis(2-methylpropyl)-1,7,13,19-tetraoxa-4,10,16,22-tetraazacyclotetracosan-2,5,8,11,14,17,20,23-octaone] | 0.32 | 0.05 | 67 | 5 | 0.2 | 0.01 to 0.1 | ≤ 0.0001 | – | –
3 | CC(C)C[C@H]1C(=O)O[C@H](Cc2ccc(Cn3cc(OC(C)C)cn3)cc2)C(=O)N(C)[C@@H](CC(C)C)C(=O)O[C@H](C)C(=O)N(C)[C@@H](CC(C)C)C(=O)O[C@H](Cc2ccc(Cn3cc(OC(C)C)cn3)cc2)C(=O)N(C)[C@@H](CC(C)C)C(=O)O[C@H](C)C(=O)N1C [Example 1b-19, (3S,6R,9S,12R,15S,18R,21S,24R)-3,9,15,21-tetraisobutyl-6,18-bis[[4-[(4-isopropoxypyrazol-1-yl)methyl]phenyl]methyl]-4,10,12,16,22,24-hexamethyl-1,7,13,19-tetraoxa-4,10,16,22-tetrazacyclotetracosane-2,5,8,11,14,17,20,23-octaone] | 7.25 | 2.4 | 87 | 267 | 24 | 0.001 to 0.01 | 0.001 to 0.01 | 1 to 10 | –
4 | CCOc1cnn(Cc2ccc(C[C@H]3OC(=O)[C@H](CC(C)C)N(C)C(=O)[C@@H](C)OC(=O)[C@H](CC(C)C)N(C)C(=O)[C@@H](Cc4ccc(Cn5cc(OCC)cn5)cc4)OC(=O)[C@H](CC(C)C)N(C)C(=O)[C@@H](C)OC(=O)[C@H](CC(C)C)N(C)C3=O)cc2)c1 [Example 1b-21, (3S,6R,9S,12R,15S,18R,21S,24R)-6,18-bis[[4-[(4-ethoxypyrazol-1-yl)methyl]phenyl]methyl]-3,9,15,21-tetraisobutyl-4,10,12,16,22,24-hexamethyl-1,7,13,19-tetraoxa-4,10,16,22-tetrazacyclotetracosane-2,5,8,11,14,17,20,23-octaone] | 28.4 | 15.5 | 36.1 | 145 | 78 | 0.001 to 0.01 | 0.0001 to 0.001 | 1 to 10 | –
5 | CC(C)C[C@H]1C(=O)O[C@H](Cc2ccc(Cn3cccn3)cc2)C(=O)N(C)[C@@H](CC(C)C)C(=O)O[C@H](C)C(=O)N(C)[C@@H](CC(C)C)C(=O)O[C@H](Cc2ccc(Cn3cccn3)cc2)C(=O)N(C)[C@@H](CC(C)C)C(=O)O[C@H](C)C(=O)N1C [Example 1b-23, (3S,6R,9S,12R,15S,18R,21S,24R)-3,9,15,21-tetraisobutyl-4,6,10,16,18,22-hexamethyl-12,24-bis[[4-(pyrazol-1-ylmethyl)phenyl]methyl]-1,7,13,19-tetraoxa-4,10,16,22-tetrazacyclotetracosane-2,5,8,11,14,17,20,23-octaone] | 8.54 | 14 | 27 | 205 | 34 | – | 0.0001 to 0.001 | ≤ 1 | –
6 | CC(C)C[C@H]1C(=O)O[C@H](Cc2ccc(Cn3ccc(-c4ccccc4)n3)cc2)C(=O)N(C)[C@@H](CC(C)C)C(=O)O[C@H](C)C(=O)N(C)[C@@H](CC(C)C)C(=O)O[C@H](Cc2ccc(Cn3ccc(-c4ccccc4)n3)cc2)C(=O)N(C)[C@@H](CC(C)C)C(=O)O[C@H](C)C(=O)N1C [Example 1b-68, (3S,6R,9S,12R,15S,18R,21S,24R)-3,9,15,21-tetraisobutyl-4,6,10,16,18,22-hexamethyl-12,24-bis(4-((3-phenyl-1H-pyrazol-1-yl)methyl)benzyl)-1,7,13,19-tetraoxa-4,10,16,22-tetraazacyclotetracosan-2,5,8,11,14,17,20,23-octaone] | 7.58 | 1 | 163 | 39 | 4 | – | 0.001 to 0.01 | – | –
7 | CC(C)C[C@H]1C(=O)O[C@H](Cc2ccc(Cn3ccc(C(F)(F)F)n3)cc2)C(=O)N(C)[C@@H](CC(C)C)C(=O)O[C@H](C)C(=O)N(C)[C@@H](CC(C)C)C(=O)O[C@H](Cc2ccc(Cn3ccc(C(F)(F)F)n3)cc2)C(=O)N(C)[C@@H](CC(C)C)C(=O)O[C@H](C)C(=O)N1C [Example 1b-69, (3S,6R,9S,12R,15S,18R,21S,24R)-3,9,15,21-tetraisobutyl-4,6,10,16,18,22-hexamethyl-12,24-bis(4-((3-(trifluoromethyl)-1H-pyrazol-1-yl)methyl)benzyl)-1,7,13,19-tetraoxa-4,10,16,22-tetraazacyclotetracosan-2,5,8,11,14,17,20,23-octaone] | 3.81 | 1 | 256 | 27 | 5 | 0.01 to 0.1 | 0.001 to 0.01 | – | –
8 | CC(C)C[C@H]1C(=O)O[C@H](Cc2ccc(Cn3nccc3C3CC3)cc2)C(=O)N(C)[C@@H](CC(C)C)C(=O)O[C@H](C)C(=O)N(C)[C@@H](CC(C)C)C(=O)O[C@H](Cc2ccc(Cn3nccc3C3CC3)cc2)C(=O)N(C)[C@@H](CC(C)C)C(=O)O[C@H](C)C(=O)N1C [Example 1b-108, (3S,6R,9S,12R,15S,18R,21S,24R)-6,18-bis(4-((5-cyclopropyl-1H-pyrazol-1-yl)methyl)benzyl)-3,9,15,21-tetraisobutyl-4,10,12,16,22,24-hexamethyl-1,7,13,19-tetraoxa-4,10,16,22-tetraazacyclotetracosan-2,5,8,11,14,17,20,23-octaone] | 5.6 | 6 | 51 | 178 | 30 | 0.001 to 0.01 | 0.0001 to 0.001 | ≤ 1 | –
9 | CC(C)C[C@H]1C(=O)O[C@H](Cc2ccc(CN3CCOc4ccccc43)cc2)C(=O)N(C)[C@@H](CC(C)C)C(=O)O[C@H](C)C(=O)N(C)[C@@H](CC(C)C)C(=O)O[C@H](Cc2ccc(CN3CCOc4ccccc43)cc2)C(=O)N(C)[C@@H](CC(C)C)C(=O)O[C@H](C)C(=O)N1C [Example 9-26, (3S,6R,9S,12R,15S,18R,21S,24R)-6,18-bis(4-((2,3-dihydro-4H-benzo[b][1,4]oxazin-4-yl)methyl)benzyl)-3,9,15,21-tetraisobutyl-4,10,12,16,22,24-hexamethyl-1,7,13,19-tetraoxa-4,10,16,22-tetraazacyclotetracosan-2,5,8,11,14,17,20,23-octaone] | 0.6 | 0.1 | 106 | 71 | 1 | – | 0.0001 to 0.001 | – | –
